Measured values reported in paper PMC4389225, “Triaminopyrimidine is a fast-killing and long-acting antimalarial clinical candidate” (Nature Communications, 2015).
Values after ≈ are worked out from the molar mass of the structure shown.

Legend:
[1] = test system: asexual blood stage of Pf; test: Pf asexual blood stage potency (Pf IC50); type: cell-based, Plasmodium falciparum; conditions: Plasmodium falciparum
Text: The TAPs series emerged from a high-throughput screen (HTS) of 500,000 compounds from the AstraZeneca corporate library against the asexual blood stage of Pf using a high-content image-based approach. The procedure for synthesis of compounds 1-6, 10, 11 using a scheme similar to Fig. 1 is provided in Supplementary Note 1. The initial hit provided multiple diversification points for a robust lead optimization campaign. […] Compounds with 2-pyridyl modification at the 2-amino position of pyrimidine core improved potency and solubility at the cost of potent activity against hERG and acetylcholine esterase (AChE; compounds 3-6; Table 1). […] The observed hERG and AChE selectivity improvement with 7 could be attributed to the polar nature of the pyrazole group and its role in reducing the pKa of the core pyrimidine ring. […] To assess the potential for cross-resistance, representative TAPs were screened against a panel of clinical isolates and in vitro-generated mutant strains displaying varying mechanisms of resistance to antimalarial agents currently in use and under development, respectively, (Supplementary Tables 1–3).

hERG = molecular target: T1, hERG (Homo sapiens, UniProt Q12809); test: electrophysiology-based hERG assay using IonWorks HT (CHO cells); type: cell-based; conditions: hERG IC50
T1 construct: expressed in transfected cells; host or cells: CHO cells
T1 sequence (Q12809 whole entry): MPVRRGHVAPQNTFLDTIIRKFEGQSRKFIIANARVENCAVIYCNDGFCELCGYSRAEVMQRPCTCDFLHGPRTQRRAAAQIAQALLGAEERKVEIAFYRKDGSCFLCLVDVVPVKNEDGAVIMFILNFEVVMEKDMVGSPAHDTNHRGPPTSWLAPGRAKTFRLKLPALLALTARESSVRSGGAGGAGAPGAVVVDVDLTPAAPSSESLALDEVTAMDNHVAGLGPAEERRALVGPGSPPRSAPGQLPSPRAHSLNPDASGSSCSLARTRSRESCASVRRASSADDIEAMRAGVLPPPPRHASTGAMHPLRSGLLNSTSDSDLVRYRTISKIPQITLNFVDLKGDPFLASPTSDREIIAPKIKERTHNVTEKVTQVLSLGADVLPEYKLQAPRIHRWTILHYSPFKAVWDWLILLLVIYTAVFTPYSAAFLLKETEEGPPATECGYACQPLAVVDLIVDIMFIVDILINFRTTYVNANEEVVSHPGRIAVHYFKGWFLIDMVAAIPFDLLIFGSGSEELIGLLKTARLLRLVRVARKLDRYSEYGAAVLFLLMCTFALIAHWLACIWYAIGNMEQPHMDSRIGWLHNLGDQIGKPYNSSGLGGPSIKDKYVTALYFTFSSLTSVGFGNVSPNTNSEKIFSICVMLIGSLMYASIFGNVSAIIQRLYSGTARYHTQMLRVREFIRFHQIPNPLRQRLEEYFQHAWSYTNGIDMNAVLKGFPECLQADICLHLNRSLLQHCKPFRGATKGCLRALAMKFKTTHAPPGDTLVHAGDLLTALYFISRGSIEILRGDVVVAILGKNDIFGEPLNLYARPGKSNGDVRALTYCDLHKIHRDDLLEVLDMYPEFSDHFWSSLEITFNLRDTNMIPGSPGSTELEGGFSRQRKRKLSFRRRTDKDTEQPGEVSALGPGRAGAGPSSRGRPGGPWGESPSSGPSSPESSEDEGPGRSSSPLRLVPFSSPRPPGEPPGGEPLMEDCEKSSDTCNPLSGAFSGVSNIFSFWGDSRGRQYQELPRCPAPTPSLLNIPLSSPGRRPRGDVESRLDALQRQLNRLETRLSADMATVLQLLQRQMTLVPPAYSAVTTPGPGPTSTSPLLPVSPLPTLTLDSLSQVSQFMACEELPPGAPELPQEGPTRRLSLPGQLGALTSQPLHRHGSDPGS
Experimental: hERG IC50 was determined in an electrophysiology-based hERG assay using IonWorks HT (CHO cells) as described earlier.

In the case of CCc1ccc(Nc2ncc(N3CCN(C)CC3)c(N3CCCC3)n2)cc1 [compound 1], the IC50 [1] is reported as 150 nM, the IC50 (hERG) is reported as 3700 nM and the solubility (Solubility) is reported as 10 µM (≈ 3.67 µg/mL).
